Experimental data as given in ChEMBL document CHEMBL1141483, “Design and synthesis of 1,3-diarylurea derivatives as selective cyclooxygenase (COX-2) inhibitors” (Bioorg Med Chem Lett, 2008).

Biological target: T1, Prostaglandin G/H synthase 1 (Ovis aries, UniProt P05979)
T1 sequence (P05979 whole entry): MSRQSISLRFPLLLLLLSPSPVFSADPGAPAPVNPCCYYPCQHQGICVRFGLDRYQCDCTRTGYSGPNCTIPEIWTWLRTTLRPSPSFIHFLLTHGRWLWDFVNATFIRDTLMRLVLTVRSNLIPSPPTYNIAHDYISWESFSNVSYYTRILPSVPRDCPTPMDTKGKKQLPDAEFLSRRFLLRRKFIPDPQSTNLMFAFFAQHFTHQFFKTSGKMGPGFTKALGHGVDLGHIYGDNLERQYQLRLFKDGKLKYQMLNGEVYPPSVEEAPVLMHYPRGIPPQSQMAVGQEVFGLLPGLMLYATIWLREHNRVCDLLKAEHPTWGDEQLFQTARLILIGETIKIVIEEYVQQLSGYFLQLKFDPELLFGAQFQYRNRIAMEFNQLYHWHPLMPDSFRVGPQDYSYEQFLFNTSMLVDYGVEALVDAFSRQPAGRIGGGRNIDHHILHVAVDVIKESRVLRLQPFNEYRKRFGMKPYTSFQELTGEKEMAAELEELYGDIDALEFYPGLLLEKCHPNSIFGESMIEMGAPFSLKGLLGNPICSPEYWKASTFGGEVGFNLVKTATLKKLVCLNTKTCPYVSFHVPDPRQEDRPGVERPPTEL
Description: Inhibition of ovine COX1 by chemiluminescent assay

IC50 [µM] | SMILES
12.5 | Cc1ccc(NC(=O)Nc2ccc(S(C)(=O)=O)cc2)cc1
21.8 | CS(=O)(=O)c1ccc(NC(=O)Nc2ccc(F)cc2)cc1
22.4 | COc1ccc(NC(=O)Nc2ccc(S(C)(=O)=O)cc2)cc1
21.5 | CS(=O)(=O)c1ccc(NC(=O)Nc2ccc(Cl)cc2)cc1
9.2 | CS(=O)(=O)c1ccc(NC(=O)Nc2ccccc2)cc1
